Consider two compounds from US8669288B2, “Lysine salts of 4-((phenoxyalkyl)thio)-phenoxyacetic acid derivatives” (Janssen Pharmaceutica N.V., priority 2005, dated 2014).

As usually defined, the pKa is the negative logarithm of the acid dissociation constant. High values mean a group that holds its proton tightly, low ones a group that gives up its proton readily. Usually solubility stands for how much of the substance goes into solution per volume.

Where a name gives a salt, the structure may show the parent alone.

What all share (type): physicochemical
Series [1] in a line: pKa.
The nature of series [2]: Solubility in distilled water.
A short description of series [3]: DVS isotherm, cycling humidity 0-90% RH. The following applies: 25° C., 0-90% RH in 10% RH increments. The procedure: The non-hydrate, L-lysine salt of the compound of formula (Ia) was subjected to cycling humidity conditions, with results as shown in FIG. 3. More specifically, the sample was analyzed through a full cycle in step mode at 25° C., from 0-90% RH (relative humidity) in 10% RH increments. The equilibration conditions set were as follows: dm/dt of 0.0007; dm/dt window of 5 mins; minimum and maximum stages of 15 and 360 minutes. Data was collected in 1 minute intervals. Nitrogen was used as the carrier gas.

`CCO[C@H](COc1ccc(C(F)(F)F)cc1)CSc1ccc(OCC(=O)O)c(C)c1` [Compound of formula (la), (R)-{4-[2-Ethoxy-3-(4-trifluoromethyl-phenoxy)-propylsulfanyl]-2-methyl-phenoxy}-acetic acid] came in with a pKa in series [1] of 3.63. Moreover, the solubility in series [2] (pH 7.4, water) was roughly 1000 µg/mL; in series [2] (water, pH 2.0), less than 2 µg/mL.
Regarding `CCO[C@H](COc1ccc(C(F)(F)F)cc1)CSc1ccc(OCC(=O)O)c(C)c1` [{4-[2-Ethoxy-3-(4-trifluoromethyl-phenoxy)-propylsulfanyl]-2-methyl-phenoxy}-acetic acid L-Lysine non-hydrate salt], in series [3], the “Form conversion under cycling humidity conditions” value is listed as “reversibly converts to the corresponding di-hydrate form by absorbing water”.
